Data published in patent US9593305B2, “Differentiation of pluripotent stem cells” (Janssen Biotech, Inc., priority 2008, dated 2017).

System: H1 human embryonic stem cells
Experiment: Dose ranging of compounds with activin A or GDF-8, SOX17 and cell number (Example 15)
Format: cell-based
Settings: for SOX17 expression in combination with GDF-8 / cell numbers at the end of assay in combination with GDF-8: 78 nM to 10 μM compound with 100 ng/ml GDF-8; for SOX17 expression with activin A treatment: 78 nM to 10 μM compound with 100 ng/ml activin A, one or three days of compound
Description: Stock cultures of human embryonic stem cells (H1 human embryonic stem cell line) were maintained in an undifferentiated, pluripotent state on reduced growth factor […]™ (BD Biosciences; Cat #356231)-coated dishes in MEF conditioned medium supplemented with 8 ng/ml bFGF (PeproTech Inc.; Cat #100-18B) with passage on average every four days. Passage was performed, by exposing cell cultures to a solution of 1 mg/ml dispase (Invitrogen; Cat #17105-041) for 5 to 7 minutes at 37° C. followed by rinsing the monolayer with MEF conditioned culture medium and gentle scraping to recover cell clusters. Clusters were centrifuged at low speed to collect a cell pellet and remove residual dispase. Cell clusters were split at a 1:3 or 1:4 ratio for routine maintenance culture or a 1:1 ratio for immediate assay. All human embryonic stem cell lines were maintained at passage numbers less than 50 and routinely evaluated for normal karyotype and absence of mycoplasma.
Cell clusters were evenly resuspended in MEF conditioned medium supplemented with 8 ng/ml bFGF and seeded onto reduced growth factor […]™-coated 96-well Packard VIEWPLATES (PerkinElmer; Cat #6005182) in volumes of 0.1 ml/well. Daily feeding was conducted by aspirating spent culture medium from each well and replacing with an equal volume of fresh medium. Plates were maintained at 37° C., 5% CO2 throughout the duration of assay.
Assay was initiated by aspirating the culture medium from each well and adding back aliquots (100 μl) of test medium. Test conditions were performed in quadruplicate over a total four-day assay period, feeding daily by aspirating and replacing the medium from each well with fresh test medium. […] Test compounds in this assay included six of the compounds of the present invention: Compound 181, Compound 180, Compound 19, Compound 202, Compound 40, and Compound 34, and a commercial GSK31 inhibitor BIO (EMD Chemicals, Inc.; Cat #361550). On the first day of assay, wells were treated with various control or experimental conditions. Control conditions, with final assay concentrations as indicated, were as follows: 1) growth medium alone; 2) 20 ng/ml Wnt3a only R&D Systems; Cat #1324-WN/CF); 3) 100 ng/ml activin A (PeproTech; Cat #120-14); 4) 100 ng/mlactivin A and 20 ng/ml Wnt3a; 5) 100 ng/ml GDF-8 (R&D Systems, Cat #788-G8); 6) 100 ng/ml GDF-8 and 20 ng/ml Wnt3a. Test compounds were diluted two-fold in series to yield a concentration range from 78 nM to 10 μM in the final assay. Experimental test samples combined each individual compound dilution series with 100 ng/ml activin A or 100 ng/ml GDF-8, both treatment sets in the absence of Wnt3a. On the second and third day of assay, some wells continued to be treated with 20 ng/ml Wnt3a or diluted test compound in combination with either activin A or GDF-8. In other wells, activin A or GDF-8 treatment continued on the second and third day of assay, but Wnt3a or diluted test compound was removed.
At the conclusion of culture, assay plates were washed once with PBS (Invitrogen; Cat #14190), fixed with 4% paraformaldehyde (Alexis Biochemical; Cat #ALX-350-011) at room temperature for 20 minutes, then washed three times with PBS and permeabilized with 0.5% Triton X-100 (Sigma; Cat #T8760-2) for 20 minutes at room temperature. Cells were washed again three times with PBS and blocked with 4% chicken serum (Invitrogen; Cat #16110082) in PBS for 30 minutes at room temperature. Primary antibody (goat anti-human SOX17; R&D Systems; Cat #AF1924) was diluted 1:100 in 4% chicken serum and added to each well for two hours at room temperature. After washing three times with PBS, Alexa Fluor 488 conjugated secondary antibody (chicken anti-goat IgG; Invitrogen; Cat #A21467) diluted 1:200 in PBS was added to each well. To counterstain nuclei, 5 μg/ml Hoechst 33342 (Invitrogen; Cat #H3570) was added for fifteen minutes at room temperature. Plates were washed once with PBS and left in 100 μl/well PBS for imaging. […]

Row | Compound | SOX17 expression in combination with GDF-8 | cell numbers at the end of assay in combination with GDF-8 | SOX17 expression with activin A treatment | SOX17 expression, control treatments (100 ng/ml activin A versus 100 ng/ml GDF-8, alone or with Wnt3a)
1 | CN1CCC(=O)NCCCc2cncc(c2)-c2ncnc(n2)Nc2cccc(c2)C1 [Compound 19, 14-Methyl-3,5,7,14,18,24,28-heptaazatetracyclo[20.3.1.1˜2,6˜0.1˜8,12˜]octacosa-1(26), 2(28), 3,5,8(27), 9,11,22,24-nonaen-17-one] | significantly improved SOX17 expression | enhanced cell numbers | did not enhance SOX 17 expression | –
2 | C=CCN1CC(=O)NCCCc2cncc(c2)-c2ncnc(n2)Nc2cccc(c2)C1 [Compound 40, 14-Prop-2-en-1-yl-3,5,7,14,17,23,27-heptaazatetracyclo[19.3.1.1˜2.6˜0.1˜8,12˜]heptacosa-1(25), 2(27), 3,5,8(26), 9,11,21,23-nonaen-16-one] | significantly improved SOX17 expression | enhanced cell numbers | did not enhance SOX 17 expression | –
3 | Activin A: recombinant human activin A (PeproTech), TGF-beta family member | – | – | – | significantly higher SOX17 expression
4 | O=C1CCN2CCN(CC2)Cc2cc(Cl)cc(c2)Nc2ncnc(n2)-c2cncc(c2)CCCN1 [Compound 34, 5-Chloro-1,8,10,12,16,22,26,32-octaazapentacyclo[24.2.2.1˜3.7˜0.1˜9,13˜0.1˜14.18˜]tritriaconta-3(33), 4,6,9(32), 10,12,14(31), 15,17-nonaen-23-one] | significantly improved SOX17 expression | enhanced cell numbers | did not enhance SOX 17 expression | –
